Patent US6777427B2, “Tetrahydroquinoline compounds” (priority 2000, dated 2004)

Assays:
[1] = target: T1, Rat Androgen Receptors (Rat AR) (Rattus norvegicus, UniProt P15207); experiment: Test for competitive binding to rat androgen receptors (3H-testosterone displacement, prostate AR fraction); conditions: RBA=100×(IC50 of hydroxyflutamide)/(IC50 of the compound)
T1 construct: from tissue; host or cells: prostate of orchiectomized 11-week-old male SD rats (100,000 x g supernatant of the homogenate)
T1 sequence (P15207 1-902): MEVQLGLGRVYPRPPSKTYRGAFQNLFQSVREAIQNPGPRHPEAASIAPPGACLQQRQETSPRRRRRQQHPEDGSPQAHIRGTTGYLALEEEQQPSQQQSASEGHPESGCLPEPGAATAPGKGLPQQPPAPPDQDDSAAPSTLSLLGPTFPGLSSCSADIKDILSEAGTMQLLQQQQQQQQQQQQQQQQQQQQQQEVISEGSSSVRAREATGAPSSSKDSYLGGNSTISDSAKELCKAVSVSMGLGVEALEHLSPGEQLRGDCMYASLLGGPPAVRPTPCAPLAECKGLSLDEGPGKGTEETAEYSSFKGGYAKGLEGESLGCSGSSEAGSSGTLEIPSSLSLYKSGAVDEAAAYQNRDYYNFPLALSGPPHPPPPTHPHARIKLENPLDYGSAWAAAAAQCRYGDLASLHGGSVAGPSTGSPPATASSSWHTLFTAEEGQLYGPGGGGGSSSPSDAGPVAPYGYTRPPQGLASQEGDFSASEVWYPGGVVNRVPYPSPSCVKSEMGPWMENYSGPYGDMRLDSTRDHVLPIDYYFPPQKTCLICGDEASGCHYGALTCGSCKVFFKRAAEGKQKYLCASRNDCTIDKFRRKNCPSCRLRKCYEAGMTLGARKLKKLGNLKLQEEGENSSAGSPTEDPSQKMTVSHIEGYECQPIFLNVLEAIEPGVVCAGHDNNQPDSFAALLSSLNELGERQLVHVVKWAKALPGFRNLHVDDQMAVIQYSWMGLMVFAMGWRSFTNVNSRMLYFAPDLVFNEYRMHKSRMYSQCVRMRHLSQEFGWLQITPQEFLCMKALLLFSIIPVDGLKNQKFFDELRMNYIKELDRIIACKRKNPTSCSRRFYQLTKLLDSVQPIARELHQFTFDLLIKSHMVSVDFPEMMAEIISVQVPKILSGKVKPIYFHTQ
Experimental: Test for Competitive Binding to Rat Androgen Receptors (Rat AR)
Preparation of rat AR fraction: Prostates were harvested into ice-cooled ET buffer (10 mM Tris, 1 mM EDTA, 5 mM DTT, 10 mM sodium molybdate, pH 7.4) 3 days after orchiectomy in 11-week-old male SD rats. The prostate was finely cut, and ET buffer was added, whereafter the mixture was homogenized using a homogenizer. The homogenate was ultracentrifuged (100,000×g, 60 min, 4° C.), and the supernatant was used as a rat AR fraction (hereinafter referred to as ARF).
Binding test: ^3H-testosterone (hereinafter referred to as ^3H-T) was diluted with ET buffer. Dihydrotestosterone (DHT) was prepared so as to have a concentration (final concentration 1 μM) 400 times the maximum concentration of ^3H-T (2.5 nM). The ^3H-T solution was added to a 1.5 ml tube containing DHT, no DHT, or the test compound with a varying concentration. Further, 200 μg ARF was added to adjust the final volume to 100 μl. The mixture was incubated for 2 hours at 4° C., and then 300 μl of a 0.05% dextran T70-1.0% activated carbon solution was added. The mixture was further incubated for 15 minutes in ice to remove the free ^3H-T. After centrifugation (4° C., 2,500 rpm, 5 min), 275 μl of the supernatant was harvested into a liquid scintillation vial, and 2 ml of clear-sol was added. The mixture was stirred, allowed to stand, and measured for ^3H radioactivity with a liquid scintillation counter. […]
a: Radioactivity of the sample incorporating the compound of the present invention (^3H-T+compound) b: Radioactivity of the sample free from the compound of the present invention (only ^3H-T: amount of total binding) c: Radioactivity of the sample incorporating DHT (^3H-T+DHT: amount of nonspecific binding) The relative binding inhibition rate (RBA: Relative Binding Affinity) was obtained from the following equation (Endocrinology 138, 863-870, 1997): […]

male rats = experiment: AR antagonistic effect: inhibition of testosterone propionate-induced prostate weight increase; format: in vivo, rat; conditions: suggested by a Test Example; no data given
Experimental: Testes were removed from male rats. From 5 days postoperatively, testosterone propionate and the compound of the present invention were simultaneously administered once daily for one consecutive week by the subcutaneous route. On the next day after final administration, the wet weight of the ventral prostate was measured to evaluate the AR antagonistic effect of the compound of the present invention based on its inhibitory action on testosterone propionate-induced prostate weight increase.

[2] = tested on: Orchiectomized (ORX) Rats; experiment: Action of increasing prostate weight in orchiectomized (ORX) rats, 8 days; format: in vivo, rat; conditions: for Weight of prostate: ORX SD rats, s.c. once daily for 8 days, DHT 10 mg/kg, Ex. 23 30 mg/kg, ventral prostate wet weight, Mean ± SD
Experimental: (§1) Testes were removed from 8-week-old male SD rats. […] In an ORX control group (Vehicle), dimethyl sulfoxide diluted with olive oil was used for the test. […] On the next day after final administration, the wet weight of the ventral prostate was measured to evaluate the AR agonistic effect of the compound of the present invention.

[3] = tested on: Orchiectomized (ORX) Rats; experiment: Action of increasing prostate weight and bone mass in orchiectomized (ORX) rats, 4 weeks; format: in vivo, rat; conditions: for Bone mineral density / Prostate weight: ORX SD rats, s.c. once daily, 5 days weekly, 4 weeks, DHT 10 mg/kg, Ex. 23 30 mg/kg, Mean ± SD; for Bone mineral density: right femur
Experimental: as §1, with “Orchiectomy was performed in 12-week-old” for “Testes were removed from 8-week-old”, “invention. On the next day following final administration, moreover, the right femur was removed, and fixed overnight in a 10% neutrally buffered formalin solution.” for “invention.”

[4] = tested on: Ovariectomized (OVX) Rats; experiment: Action of increasing bone mass in ovariectomized (OVX) rats, 8 weeks; format: in vivo, rat; conditions: for Bone mineral density: OVX female SD rats, right femur, s.c. once daily, 5 days weekly, 8 weeks from 4 weeks postoperatively, DHT 10 mg/kg, Ex. 23 30 mg/kg, Mean ± SD
Experimental: Action of Increasing Bone Mass in Ovariectomized (OVX) Rats
Ovariectomy was performed in 12-week-old female SD rats. […] In an OVX control group (Vehicle), dimethyl sulfoxide diluted with olive oil was used for the test. […] On the next day after final administration, the right femur was removed, and fixed overnight in a 10% neutrally buffered formalin solution.

With `CN(C)C1CC(C(C)(C)COC(=O)c2ccc(F)cc2)Nc2ccc([N+](=O)[O-])cc21` (centres unmarked) [Example 11, 4-Fluorobenzoic acid 2-(4-dimethylamino-6-nitro-1,2,3,4-tetrahydroquinolin-2-yl)-2-methyl-propyl ester] the “RBA (Relative Binding Affinity)” value [1] was 98.

In the case of `CC(=O)OCC(C)(C)C1CC(N(C)C)c2cc([N+](=O)[O-])ccc2N1` (centres unmarked) [Example 9, Acetic acid 2-(4-dimethylamino-6-nitro-1,2,3,4-tetrahydroquinolin-2-yl)-2-methyl-propyl ester], the “RBA (Relative Binding Affinity)” value [1] is reported as 79.

In the case of `CC(C)(O)C(=O)Nc1ccc([N+](=O)[O-])c(C(F)(F)F)c1` [Hydroxyflutamide, reference compound], the “RBA (Relative Binding Affinity)” value [1] is reported as 100.

With `CCCN(CCC)C1CC(C(C)(C)CO)Nc2ccc([N+](=O)[O-])cc21` (centres unmarked) [Example 33, 2-(4-Di-n-propylamino-6-nitro-1,2,3,4-tetrahydroquinolin-2-yl)-2-methylpropan-1-ol] the “AR antagonistic effect (in words)” value (male rats) was “AR antagonist”.

For `C[C@]12CCC(=O)C[C@@H]1CC[C@@H]1[C@@H]2CC[C@]2(C)[C@@H](O)CC[C@@H]12` [DHT, dihydrotestosterone, reference compound], the Weight of prostate [2] was 68 ± 16 mg/body weight (100 g), the Bone mineral density [3] was 130 ± 7 mg/cm^2 and the Prostate weight [3] was 150 ± 14 mg/body weight 100 g. It also gave a Bone mineral density [4] of 120.8 ± 4.4 mg/cm^2.

In the case of `CC(C)(CO)C1CC(NCc2ccccc2)c2cc([N+](=O)[O-])ccc2N1` (centres unmarked) [Example 30, 2-(4-Benzylamino-6-nitro-1,2,3,4-tetrahydroquinolin-2-yl)-2-methylpropan-1-ol], the “RBA (Relative Binding Affinity)” value [1] is reported as 370.

`CN(C)C1CC(C(C)(C)CO)Nc2ccc([N+](=O)[O-])cc21` (centres unmarked) [Example 23, 2-(4-dimethylamino-6-nitro-1,2,3,4-tetrahydroquinolin-2-yl)-2-methylpropan-1-ol] was tested, and the Weight of prostate [2] was 52 ± 12 mg/body weight (100 g), the “Effect on prostate weight (in words)” value ([2]; ORX rats, consecutively administered for 8 days, 30 mg/kg s.c.) was “significantly increased prostate weights in comparison with the ORX control” and the Bone mineral density [3] was 134 ± 6 mg/cm^2. The Prostate weight [3] was 78 ± 10 mg/body weight 100 g, the “Effect on atrophied prostate (in words)” value ([3]; ORX rats, administered for 4 weeks, 30 mg/kg s.c.) was “restored the atrophied prostate up to the level of the normal control” and the “Effect on bone mineral density (in words)” value ([3]; ORX rats, administered for 4 weeks, 30 mg/kg s.c., vs control group) was “significantly increased the decreased bone mineral density”. For the same compound, the Bone mineral density [4] was 120.9 ± 3.9 mg/cm^2 and the “Effect on bone mineral density (in words)” value ([4]; OVX rats, administered for 8 weeks, 30 mg/kg s.c.) was “significantly increased the bone mineral density”.
